Experimental data: patent US5776886A, “Intravaginal preparation containing physiologically active peptide” (Teikoku Seiyaku Kabushiki Kaisha, priority 1993, dated 1998)

Tests used:
[1] = tested on: calcium level in the serum; test: Experiment 4: effects of the concentration of sucrose fatty acid ester on serum calcium reduction; format: in vivo, Wistar rats
Experimental: (§1) An intravaginal suppository was administered into the rat's vagina, and the blood was collected periodically (2, 4 and 6 hours after administration of the test preparation).
(§2) The serum was separated, and the calcium level in the serum was determined by using a kit for determination of calcium (Calcium C Test Wako; manufactured by Wako Pure Chemical Industries, Ltd.) (n=3).
Human calcitonin (2 mg) was precisely measured, and thereto were added citric acid (100 mg) and Ryoto-Sugar Ester S-970 (50 mg, 100 mg or 400 mg), and the mixture was mixed well.
In the same manner as in Experiment 1, each intravaginal suppository was administered to the rat's vagina, and the blood was collected periodically (2 and 4 hours after administration of intravaginal suppository), and the calcium level in the serum thereof was determined (n=3).

[2] = tested on: calcium level in the serum; test: Experiment 1: serum calcium reduction after human calcitonin intravaginal suppository, sucrose fatty acid ester plus citric acid vs each alone; format: in vivo, Wistar rats; settings: for Reduction rate (%) of calcium level in the serum: intravaginal suppository 20 μg, ovariectomized rats
Experimental: To the mixture was added a commercially available base for intravaginal preparation; Witepsol S-55 (which is prepared from Witepsol E-85 so as to give a final intravaginal suppository having a melting point of 36.5° C., manufactured by Hils Co., Ltd., former Diamit Novel Co., Ltd) which was homogenized by previously warming and stirring thereof so as to give an intravaginal suppository with the total weight of 5.00 g. […] The mixture was poured into a tube (inside diameter: about 3 mm) made of teflon at about 40° C., cooled to solidify, and taken out from the tube. The solidified mixture was cut into pieces (weight: 50 mg) to give intravaginal suppositories for rats containing human calcitonin (20 μg/each). There were also obtained two kinds of intravaginal suppositories prepared by adding citric acid (50 mg) only, and prepared by adding a sucrose fatty acid ester (100 mg) only, likewise. There were obtained intravaginal suppositories containing only human calcitonin without citric acid nor a sucrose fatty acid ester, likewise, which are used as control.
as §1, §2

## Human calcitonin
[1]; sucrose fatty acid ester 1, 2 or 8 w/w % with citric acid
  calcium level in the blood: reduced at any concentration of the sucrose fatty acid ester to be used
[1]; sucrose fatty acid ester (S-970) 1 w/w %, citric acid 100 mg per 5.00 g, intravaginal suppository 20 μg, rats, 2 hr
  Reduction rate (%) of calcium level in the serum: 10.8%
[2]; Control: only human calcitonin, no citric acid nor sucrose fatty acid ester, 2 hr
  Reduction rate (%) of calcium level in the serum: 2.6%
[2]; Control: only human calcitonin, no citric acid nor sucrose fatty acid ester, 4 hr
  Reduction rate (%) of calcium level in the serum: 2.2%
[2]; Control: only human calcitonin, no citric acid nor sucrose fatty acid ester, 6 hr
  Reduction rate (%) of calcium level in the serum: 3.8%
[2]; added: citric acid only, 2 hr
  Reduction rate (%) of calcium level in the serum: 9.5%
[2]; added: citric acid only, 4 hr
  Reduction rate (%) of calcium level in the serum: 8.0%
[2]; added: citric acid only, 6 hr
  Reduction rate (%) of calcium level in the serum: 5.7%
[2]; added: sucrose fatty acid ester (S-970) and citric acid, base Witepsol S-55, 2 hr
  Reduction rate (%) of calcium level in the serum: 14.9%
[2]; added: sucrose fatty acid ester (S-970) and citric acid, base Witepsol S-55, 4 hr
  Reduction rate (%) of calcium level in the serum: 19.5%
[2]; added: sucrose fatty acid ester (S-970) and citric acid, base Witepsol S-55, 6 hr
  Reduction rate (%) of calcium level in the serum: 11.1%
[2]; added: sucrose fatty acid ester (S-970) only, 2 hr
  Reduction rate (%) of calcium level in the serum: 10.6%
[2]; added: sucrose fatty acid ester (S-970) only, 4 hr
  Reduction rate (%) of calcium level in the serum: 10.5%
[2]; added: sucrose fatty acid ester (S-970) only, 6 hr
  Reduction rate (%) of calcium level in the serum: 10.7%
[2]; combination of sucrose fatty acid ester and citric acid compared with either only
  calcitonin-absorption promotion effects, on the basis of the reduction rate of the calcium level in the serum: far superior
